Source: EP0665834B1, “QUINOLONE AND ACRIDINONE DERIVATIVES FOR THE TREATMENT OF URINARY INCONTINENCE” (AstraZeneca AB, priority 1992, dated 1994)
One block for each molecule: values may come before it.

Experiments:
[1] = system: bladder; test: in vivo oral test in catheterized rats: bladder contraction interval, blood pressure, heart rate; set-up: species or system Male Wistar rats; details: dosed orally at 3 mg/kg body weight
Protocol: The compound described in Example 1 is active and selective in this test when dosed orally at 3 mg/kg body weight.
Male Wistar rats (400 - 500 g) were anesthetized with 50 mg/kg Nembutal, i.p. For each rat, the abdominal region and the front and back of the neck were shaved and povidone-iodine was applied to the skin. For carotid catheterization, the left carotid artery was exposed via a small ventral cervical incision. The exposed area was flushed with a 2% lidocaine HCl solution to relax the vessel. The catheter, filled with 0.9% saline, was introduced approximately 2.4 cm into the artery so that its tip resided in the aortic arch. The distal end of the catheter was exteriorized at the nape of the neck, filled with heparin (1000 units/ml) and heat sealed. […]
The rats were weighed, orally sham-dosed (dosing needle introduced, but no fluid expelled), and transvesical saline infusion (.18 ml/min) was begun and continued throughout the experiment. Variations in blood pressure, heart rate, intravesical pressure and urine output were recorded on either a Grass Polygraph or a Gould TA4000 recording system. […] At this point, a basal level of each experimental parameter was recorded and the rats were administered by oral gavage the appropriate dose of compound (in a 75% PEG 400 - saline vehicle) in concentrations such that the volume was 1 ml/kg body weight. […]

[2] = chemical stability (no method given); format: physicochemical; details: in words; compared with corresponding compounds wherein R^2 is methyl
[3] = system: guinea pig detrusor strips; test: in vitro relaxation of guinea pig bladder detrusor strips contracted with 15 mM KCl (first test); format: cell-based, albino Hartley guinea pigs; details: for potency: in vitro, in words only; for IC50: Cavia porcellus, 15 mM KCl
Source text: The actions of compounds of formula I as smooth muscle relaxants useful as therapeutic agents for the treatment of urinary incontinence through their action to open potassium channels and hyperpolarize the membrane potential in the bladder detrusor smooth muscle can be shown using suitably designed in vitro tests, such as the one described following. […] "IC50" is a well understood term and means the concentration of test compound which causes a 50% decrease in the in vitro contraction of the bladder tissue described in the following test.
Hale albino Hartley guinea pigs (450-500g) are sacrificed by carbon dioxide induced asphyxiation and quickly exsanguinated. The lower abdominal cavity is opened and the urinary bladder isolated. The bladder is cleaned of surrounding connective and adipose tissue, and the portion above the ureteral orifices is removed and washed in Krebs-Henseleit buffer solution of the following composition (in mH): NaCl 118.0, KCl 4.7, […] 1.2, KH2PO4 1.2, CaCl2 2.5, NaHCO3 25.0 and d-glucose 11.1. The solution is warmed to 37°C and gassed with 95% O2 and 5% CO2. With vigorous bubbling, the solution should have a pH value close to 7.4.
The dome of the washed bladder is cut off and discarded; the remaining bladder is placed on a gauze in a Petri dish containing the buffer solution. A mid-ventral longitudinal cut is made with scissors to open the bladder. The strips cut from the dome and the base edge are discarded. The remaining detrusor mid-section is cut into two horizontal strips with an approximate width of 2.0 mm. These two strips are further bisected at the mid-dorsal section, creating four strip of similar dimensions. Each strip thus contains both dorsal and ventral portions of the bladder.
The two ends of each individual strip are tied to a glass support rod and a force-displacement transducer (Grass model FR03), respectively, with 4-0 black braided silk suture.
The transducers are connected to a polygraph (Grass model 7E), which is calibrated at 5 mV/cm and the calibration checked for linearity with weights of 5 and 0.5 grams. The analog electrical output signals from the polygraph are digitized by a Modular Instrument Hicro 5000 signal processing system using Biowindow Data Acquisition Software, which is run under the Hicrosoft OS/2 operating system with an IBM-compatible PC.
The detrusor strips on the glass rod are secured in 20 ml tissue baths and allowed to equilibrate under a preload tension of 2 grams. […]
When the tissue relaxes to a steady state after the final washing, 15 mH KCl is again applied. […] The effect of the compound at each dose is expressed as % of the maximum inhibitory response, which is further normalized with respect to the corresponding effect of the compound vehicle control. […]

[4] = system: guinea pig detrusor strips; test: second in vitro test: guinea pig detrusor strips contracted with 80 mM KCl; format: cell-based; details: for potency in the second test (80 mM KCl) compared with the first test (15 mM KCl): guinea pig detrusor strips
Protocol: This second in vitro test is similar to the one described above with regard to tissue preparation and data acquisition. However, the following exceptions are noted. In this second test, the contraction of the detrusor strips during priming and after the equilibration period is achieved with 80 mM instead of 15 mM KCl (total concentration in the bath).
Typical calcium channel blockers like nifedipine, nimodipine, isradipine, and verapamil are able to relax and reduce the myogenic activity of guinea pig detrusor strips in both tests by virtue of their blocking action on calcium channels.

[5] = system: urinary incontinence; details: preliminary clinical trial; Nurse et al, British Journal of Urology (1991); cited from earlier work
[6] = system: cardiovascular system; details: Vitolinya et al, 1981; cited from earlier work
[7] = system: intestinal smooth muscle; details: Vitolinya et al, 1981; cited from earlier work

Compound: CC1=CC(c2cccc([N+](=O)[O-])c2)C2=C(CCCC2=O)N1 (centres unmarked) [Example 1, 2-Methyl-4-(3-nitrophenyl)-4,6,7,8-tetrahydro-5(1H)-quinolone]
activity [1]: active

chemical stability [2]: superior
Compound: N#Cc1cccc(C2C=C(C(F)(F)F)NC3=C2C(=O)CCC3)c1 (centres unmarked) [Example 39, 2-Trifluoromethyl-4-(3-cyanophenyl)-4,6,7,8-tetrahydro-5(1H)-quinolone]
potency [3]: surprisingly good potency in vitro

chemical stability [2]: superior
Compound: O=C1CCCC2=C1C(c1cccc([N+](=O)[O-])c1)C=C(C(F)(F)F)N2 (centres unmarked) [Example 15, 2-Trifluoromethyl-4-(3-nitrophenyl)-4,6,7,8-tetrahydro-5(1H)quinolone]
potency [3]: surprisingly good potency in vitro

Compound: COc1ccc(CCN(C)CCCC(C#N)(c2ccc(OC)c(OC)c2)C(C)C)cc1OC (centres unmarked) [verapamil]
potency in the second test (80 mM KCl) compared with the first test (15 mM KCl) [4]: more potent in the second test

Compound: COC(=O)C1=C(C)NC(C)=C(C(=O)OC(C)C)C1c1cccc2nonc12 (centres unmarked) [isradipine]
potency in the second test (80 mM KCl) compared with the first test (15 mM KCl) [4]: more potent in the second test

IC50 ([3]; relaxant activity in the first test): 0.6 to 0.9 µM
Compound: CC1(C)Oc2ccc(C#N)cc2C(N2CCCC2=O)C1O (centres unmarked) [cromakalim]
efficacy in treatment of urinary incontinence [5]: effective
relaxant activity ([4]; 80 mM KCl, at concentrations as high as 30 µM): insignificant relaxant activity

Compound: COc1ccc(Cc2nccc3cc(OC)c(OC)cc23)cc1OC [papaverine]
effect on sustained tension after high KCl stimulation ([4]; 80 mM KCl, 300 µM): totally abolished

IC50 ([3]; concentration causing 50% decrease in in vitro contraction of bladder tissue): 8.11 µM
Compound: CC1=CC(c2ccc(C(F)(F)F)cc2)C2=C(CCCC2=O)N1 (centres unmarked) [Example 9, 2-Methyl-4-(4-trifluoromethylphenyl)-4,6,7,8-tetrahydro-5(1H)-quinolone]

Compound: CC1=C(C#N)C(c2ccccc2)C2=C(CC(C)(C)CC2=O)N1 (centres unmarked) [3-Cyano-4-phenyl-2,7,7-trimethyl-4,6,7,8-tetrahydro-5(1H)-quinolone]
hypotensive properties [6]: hypotensive properties
blocking of spasmogenic effect of acetylcholine and barium chloride [7]: capable of blocking the spasmogenic effect
